Reference: patent US9452990B2, “Complement pathway modulators and uses thereof” (NOVARTIS AG, priority 2012, dated 2016)
Structures can show the parent of a compound that is named as a salt.

Molecular target: human complement factor B (CVF-Bb complex) (Homo sapiens (Human), UniProt P00751)
Test: Human Complement Factor B ELISA Assay
Assay type: biochemical
Settings: CVF-Bb complex 3 nM, 1 hour preincubation with compound at room temperature, human C3 substrate 1 μM, C3a quantified by ELISA; read-out: Factor B IC50
Method: Human Complement Factor B ELISA Assay
CVF-Bb complex prepared from purified cobra venom factor (1 μM), recombinant human complement factor B (expressed in drosophila cells and purified using standard methods) and human complement factor D (expressed in E. Coli, refolded and purified using standard methods). CVF-Bb complex at 3 nM concentration was incubated with test compound at various concentrations for 1 hour at room temperature in PBS pH 7.4 containing 10 mM MgCl2 and 0.05% (w/v) CHAPS. Human complement C3 substrate purified from plasma was added to a final concentration of 1 μM. After 1 hour incubation at room temperature, the enzyme reaction was stopped by addition of a cocktail of concentrated pan-protease inhibitors. The product of the reaction, C3a, was quantified by means of an enzyme-linked-immunosorbent assay. IC50 values were calculated from percentage of inhibition of CVF-Bb activity as a function of test compound concentration.

SMILES	IC50 [nM]
COc1cc2c(N)nc(N3CCN(C(=O)/C=C/C4CC4)CC3)nc2c(F)c1OC [Example 1, (E)-1-[4-(4-Amino-8-fluoro-6,7-dimethoxy-quinazolin-2-yl)-piperazin-1-yl]-3-cyclopropyl-propenone hydrochloride]	500
COc1cc2c(N)nc(N3CCN(C(=O)/C=C/c4ccc(C#N)cc4)CC3)nc2c(F)c1OC [Example 2, 4-{(E)-3-[4-(4-Amino-8-fluoro-6,7-dimethoxy-quinazolin-2-yl)-piperazin-1-yl]-3-oxo-propenyl}-benzonitrile]	16
COC[C@H]1CN(C(=O)/C=C/C2CC2)CCN1c1nc(N)c2cc(OC)c(OC)c(F)c2n1 [Example 3]	2060
COCCC1CN(C(=O)/C=C/C2CC2)CCN1c1nc(N)c2cc(OC)c(OC)c(F)c2n1 (centres unmarked) [Example 4, (E)-1-[4-(4-Amino-8-fluoro-6,7-dimethoxy-quinazolin-2-yl)-3-(2-methoxy-ethyl)-piperazin-1-yl]-3-cyclopropyl-propenone]	16500
COc1cc2c(N)nc(N3CCN(C(=O)/C=C/C4CC4)CC3)nc2c(C#N)c1OC [Example 5, 4-Amino-2-[4-((E)-3-cyclopropyl-acryloyl)-piperazin-1-yl]-6,7-dimethoxy-quinazoline-8-carbonitrile]	440
COc1cc2c(N)nc(N3CCN(C(=O)/C=C/C4CCC4)C[C@@H]3C)nc2c(F)c1OC [Example 6, (E)-1-[(S)-4-(4-Amino-8-fluoro-6,7-dimethoxy-quinazolin-2-yl)-3-methyl-piperazin-1-yl]-3-cyclobutyl-propenone]	190
COc1cc2c(N)nc(N3CCN(C(=O)/C=C/c4ccc(C#N)cc4)C[C@@H]3C)nc2c(F)c1OC [Example 7, 4-{(E)-3-[(S)-4-(4-Amino-8-fluoro-6,7-dimethoxy-quinazolin-2-yl)-3-methyl-piperazin-1-yl]-3-oxo-propenyl}-benzonitrile]	20
CC[C@H]1CN(C(=O)/C=C/c2ccc(C#N)cc2)CCN1c1nc(N)c2cc(OC)c(OC)c(F)c2n1 [Example 8, 4-{(E)-3-[(S)-4-(4-Amino-8-fluoro-6,7-dimethoxy-quinazolin-2-yl)-3-ethyl-piperazin-1-yl]-3-oxo-propenyl}-benzonitrile]	11
CCC[C@H]1CN(C(=O)/C=C/c2ccc(C#N)cc2)CCN1c1nc(N)c2cc(OC)c(OC)c(F)c2n1 [Example 9, 4-{(E)-3-[(S)-4-(4-Amino-8-fluoro-6,7-dimethoxy-quinazolin-2-yl)-3-propyl-piperazin-1-yl]-3-oxo-propenyl}-benzonitrile]	20
COc1cc2c(N)nc(N3CCN(C(=O)/C=C/c4ccc(C#N)cc4)C[C@@H]3c3ccccc3)nc2c(F)c1OC [Example 10, 4-{(E)-3-[(S)-4-(4-Amino-8-fluoro-6,7-dimethoxy-quinazolin-2-yl)-3-phenyl-piperazin-1-yl]-3-oxo-propenyl}-benzonitrile]	6
COCCOc1c(OC)cc2c(N)nc(N3CCN(C(=O)/C=C/c4ccc(C#N)cc4)CC3)nc2c1F [Example 11, 4-((E)-3-{4-[4-Amino-8-fluoro-6-methoxy-7-(2-methoxy-ethoxy)-quinazolin-2-yl]-piperazin-1-yl}-3-oxo-propenyl)-benzonitrile]	230
COc1cc2nc(N3CCN(C(=O)/C=C/C4CC4)CC3)nc(N)c2c(F)c1OC [Example 12, (E)-1-[4-(4-Amino-5-fluoro-6,7-dimethoxy-quinazolin-2-yl)-piperazin-1-yl]-3-cyclopropyl-propenone]	140
COc1cc2c(N)nc(N3CCN(C(=O)/C=C/C4CC4)CC3)nc2c(Cl)c1OC [Example 13, (E)-1-(4-(4-Amino-8-chloro-6,7-dimethoxyquinazolin-2-yl)piperazin-1-yl)-3-cyclopropylprop-2-en-1-one]	1050
COc1cc2nc(N3CCN(C(=O)/C=C/C4CC4)CC3)nc(N)c2c(Cl)c1OC [Example 14, (E)-1-(4-(4-Amino-5-chloro-6,7-dimethoxyquinazolin-2-yl)piperazin-1-yl)-3-cyclopropylprop-2-en-1-one]	3290
